Key:
A549/ATCC = A549/ATCC (Non-Small Cell Lung Cancer), 48 h, SRB
HOP-62 = HOP-62 (Non-Small Cell Lung Cancer), 48 h, SRB
NCI-H23 = NCI-H23 (Non-Small Cell Lung Cancer), 48 h, SRB
SK-MEL-2 = SK-MEL-2 (Melanoma), 48 h, SRB
786-0 = 786-0 (Renal Cancer), 48 h, SRB
MOLT-4 = assay: cells; settings: Homo sapiens, MOLT-4, 48 h; for CC50: read-out: LC50
EKVX = assay: cells; settings: Homo sapiens, 48 h; for CC50: read-out: LC50
NCI-H460 = assay: cells; settings: Homo sapiens, NCI-H460, 48 h; for CC50: read-out: LC50
HCT-116 = assay: cells; settings: Homo sapiens, HCT-116, 48 h; for CC50: read-out: LC50
LOX IMVI = assay: cells; settings: Homo sapiens, 48 h; for CC50: read-out: LC50
SN12C = assay: cells; settings: Homo sapiens, 48 h; for CC50: read-out: LC50
T-47D = assay: cells; settings: Homo sapiens, T47D, 48 h; for CC50: read-out: LC50
CCRF-CEM = assay: NCI DTP 60 cell line screen, SRB; settings: 48 h; for TGI: CCRF-CEM (Leukemia), SRB; for GI50 / CC50: Homo sapiens, CCRF-CEM; for CC50: read-out: LC50
NCI-322M = assay: NCI DTP 60 cell line screen, SRB; settings: 48 h; for GI50 / CC50: Homo sapiens, NCI-322M; for CC50: read-out: LC50; for TGI: NCI-322M (Non-Small Cell Lung Cancer), SRB
Colo 205 = assay: NCI DTP 60 cell line screen, SRB; settings: for TGI: Colo 205 (Colon Cancer), 48 h, SRB; for GI50 / CC50: Homo sapiens, COLO 205, 48 h; for CC50: read-out: LC50
M14 = assay: NCI DTP 60 cell line screen, SRB; settings: for GI50 / CC50: Homo sapiens, M14, 48 h; for CC50: read-out: LC50; for TGI: M14 (Melanoma), 48 h, SRB
OVCAR-5 = assay: NCI DTP 60 cell line screen, SRB; settings: for GI50 / CC50: Homo sapiens, OVCAR-5, 48 h; for CC50: read-out: LC50; for TGI: OVCAR-5 (Ovarian Cancer), 48 h, SRB
OVCAR-8 = assay: NCI DTP 60 cell line screen, SRB; settings: for GI50 / CC50: Homo sapiens, OVCAR-8, 48 h; for CC50: read-out: LC50; for TGI: OVCAR-8 (Ovarian Cancer), 48 h, SRB
UO-31 = assay: NCI DTP 60 cell line screen, SRB; settings: for GI50 / CC50: Homo sapiens, UO-31, 48 h; for CC50: read-out: LC50; for TGI: UO-31 (Renal Cancer), 48 h, SRB
MDA-MB-231/ATCC = assay: NCI DTP 60 cell line screen, SRB; settings: for GI50 / CC50: Homo sapiens, MDA-MB-231, 48 h; for CC50: read-out: LC50; for TGI: MDA-MB-231/ATCC (Breast Cancer), 48 h, SRB
MDA-MB-435 = assay: NCI DTP 60 cell line screen, SRB; settings: for GI50 / CC50: Homo sapiens, MDA-MB-435, 48 h; for CC50: read-out: LC50; for TGI: MDA-MB-435 (Breast Cancer), 48 h, SRB
BT-549 = assay: NCI DTP 60 cell line screen, SRB; settings: for TGI: BT-549 (Breast Cancer), 48 h, SRB; for GI50 / CC50: Homo sapiens, BT-549, 48 h; for CC50: read-out: LC50
SK-MEL-28 [1] = settings: SK-MEL-28 (Melanoma), 48 h, SRB
SK-MEL-28 [2] = assay: cells; settings: Homo sapiens, SK-MEL-28, 48 h; for CC50: read-out: LC50
HT-29 = assay: NCI DTP 60 cell line screen, SRB; settings: for TGI: HT-29 (Colon Cancer), 48 h, SRB; for GI50 / CC50: Homo sapiens, HT-29, 48 h; for CC50: read-out: LC50

## O=C1/C(=C/C(Cl)=C/c2ccc([N+](=O)[O-])cc2)SC(=S)N1/N=C\C(Cl)=C\c1ccc([N+](=O)[O-])cc1 [Compound 2c, 5-[(Z,2Z)-2-Chloro-3-(4-nitrophenyl)-2-propenylidene]-3-[(Z,2Z)-2-chloro-3-(4-nitrophenyl)-2-propenylideneamino]-2-thioxo-4-thiazolidinone]
A549/ATCC
  TGI: 42.6 µM
HOP-62
  TGI: 39.7 µM
NCI-H23
  TGI: 31.6 µM
SK-MEL-2
  TGI: 36.4 µM
786-0
  TGI: 30.7 µM
MOLT-4
  GI50: 3.2 µM
  CC50: 52.5 µM
EKVX
  GI50: 23.7 µM
  CC50: 96.1 µM
NCI-H460
  GI50: 15 µM
  CC50: 69.5 µM
HCT-116
  GI50: 2.73 µM
  CC50: 23.3 µM
LOX IMVI
  GI50: 13 µM
  CC50: 63.8 µM
SN12C
  GI50: 29 µM
  CC50: > 100 µM
T-47D
  GI50: 24.5 µM
  CC50: > 100 µM
CCRF-CEM
  TGI: 35.3 µM
  GI50: 4.42 µM
  CC50: > 100 µM
NCI-322M
  GI50: 87.6 µM
  CC50: > 100 µM
  TGI: > 100 µM
Colo 205
  TGI: > 100 µM
  GI50: 56.2 µM
  CC50: > 100 µM
M14
  GI50: 16.2 µM
  CC50: 78.5 µM
  TGI: 35.7 µM
OVCAR-5
  GI50: 15.1 µM
  CC50: 86.6 µM
  TGI: 36.2 µM
OVCAR-8
  GI50: 1.98 µM
  CC50: 8.38 µM
  TGI: 4.08 µM
UO-31
  GI50: 17.5 µM
  CC50: 59.1 µM
  TGI: 32.2 µM
MDA-MB-231/ATCC
  GI50: 10 µM
  CC50: > 100 µM
  TGI: 35.4 µM
MDA-MB-435
  GI50: 20.3 µM
  CC50: 86.3 µM
  TGI: 41.9 µM
BT-549
  TGI: 76.0 µM
  GI50: 27.3 µM
  CC50: > 100 µM

## O=C1/C(=C/C(Cl)=C/c2ccc([N+](=O)[O-])cc2)SC(=S)N1c1ccc(O)cc1 [Compound 2f, 5-[(Z,2Z)-2-Chloro-3-(4-nitrophenyl)-2-propenylidene]-3-(4-hydroxyphenyl)-2-thioxo-4-thiazolidinone]
A549/ATCC
  TGI: 6.47 µM
HOP-62
  TGI: 5.22 µM
NCI-H23
  TGI: 3.11 µM
SK-MEL-28 [1]
  TGI: 47.7 µM
786-0
  TGI: 3.83 µM
MOLT-4
  GI50: 0.389 µM
  CC50: > 100 µM
EKVX
  GI50: 2.37 µM
  CC50: > 100 µM
NCI-H460
  GI50: 0.754 µM
  CC50: > 100 µM
HCT-116
  GI50: 1.27 µM
  CC50: 6.92 µM
LOX IMVI
  GI50: 1.17 µM
  CC50: > 100 µM
SK-MEL-28 [2]
  GI50: 4.49 µM
  CC50: > 100 µM
SN12C
  GI50: 1.98 µM
  CC50: > 100 µM
T-47D
  GI50: 1.55 µM
  CC50: > 100 µM
NCI-322M
  GI50: 2.49 µM
  CC50: > 100 µM
  TGI: 9.02 µM
Colo 205
  TGI: > 100 µM
  GI50: 4.34 µM
  CC50: > 100 µM
HT-29
  TGI: > 100 µM
  GI50: 2.14 µM
  CC50: > 100 µM
M14
  GI50: 1.9 µM
  CC50: 7.32 µM
  TGI: 3.73 µM
OVCAR-8
  GI50: 1.14 µM
  CC50: > 100 µM
  TGI: 22.9 µM
UO-31
  GI50: 2.08 µM
  CC50: > 100 µM
  TGI: 3.98 µM
MDA-MB-231/ATCC
  GI50: 2.18 µM
  CC50: 92.1 µM
  TGI: 12.2 µM
MDA-MB-435
  GI50: 3.5 µM
  CC50: > 100 µM
  TGI: 7.71 µM
BT-549
  TGI: 7.71 µM
  GI50: 1.55 µM
  CC50: > 100 µM

## O=C(O)CCN1C(=O)/C(=C/C(Cl)=C/c2ccc([N+](=O)[O-])cc2)SC1=S [Compound 2h, 3-{5-[(Z,2Z)-2-Chloro-3-(4-nitrophenyl)-2-propenylidene]-4-oxo-2-thioxothiazolidin-3-yl}propanoic acid]
A549/ATCC
  TGI: 7.62 µM
HOP-62
  TGI: 19.9 µM
NCI-H23
  TGI: 3.22 µM
SK-MEL-2
  TGI: 4.93 µM
SK-MEL-28 [1]
  TGI: 23.6 µM
786-0
  TGI: 2.47 µM
MOLT-4
  GI50: 0.016 µM
  CC50: > 100 µM
EKVX
  GI50: 0.334 µM
  CC50: 55.6 µM
NCI-H460
  GI50: 0.804 µM
  CC50: > 100 µM
HCT-116
  GI50: 0.27 µM
  CC50: > 100 µM
LOX IMVI
  GI50: 0.161 µM
  CC50: > 100 µM
SK-MEL-28 [2]
  GI50: 3.59 µM
  CC50: 89.5 µM
SN12C
  GI50: 1.05 µM
  CC50: 8.48 µM
T-47D
  GI50: 0.363 µM
  CC50: > 100 µM
NCI-322M
  GI50: 2.83 µM
  CC50: 63.4 µM
  TGI: 10.9 µM
Colo 205
  TGI: > 100 µM
  GI50: 0.35 µM
  CC50: > 100 µM
HT-29
  TGI: 2.77 µM
  GI50: 1.25 µM
  CC50: > 100 µM
M14
  GI50: 1.66 µM
  CC50: 7.74 µM
  TGI: 3.58 µM
OVCAR-8
  GI50: 0.244 µM
  CC50: > 100 µM
  TGI: 11.5 µM
UO-31
  GI50: 0.812 µM
  CC50: 6.31 µM
  TGI: 2.43 µM
MDA-MB-231/ATCC
  GI50: 1.08 µM
  CC50: 25.9 µM
  TGI: 4.86 µM
MDA-MB-435
  GI50: 1.25 µM
  CC50: 29.3 µM
  TGI: 4.12 µM
BT-549
  TGI: 0.920 µM
  GI50: 0.247 µM
  CC50: 36.3 µM

## O=C(O)C(Cc1ccccc1)N1C(=O)/C(=C/C(Cl)=C/c2ccc([N+](=O)[O-])cc2)SC1=S (stereo not drawn) [Compound 2j, 2-{5-[(Z,2Z)-2-Chloro-3-(4-nitrophenyl)-2-propenylidene]-4-oxo-2-thioxothiazolidin-3-yl}-3-phenylpropanoic acid]
A549/ATCC
  TGI: > 100 µM
HOP-62
  TGI: 6.75 µM
NCI-H23
  TGI: 4.86 µM
SK-MEL-2
  TGI: 4.50 µM
SK-MEL-28 [1]
  TGI: 4.68 µM
786-0
  TGI: 5.01 µM
MOLT-4
  GI50: 3.14 µM
  CC50: > 100 µM
EKVX
  GI50: 2.59 µM
  CC50: > 100 µM
NCI-H460
  GI50: 2.19 µM
  CC50: > 100 µM
HCT-116
  GI50: 2.01 µM
  CC50: 56.7 µM
LOX IMVI
  GI50: 1.64 µM
  CC50: 6.46 µM
SK-MEL-28 [2]
  GI50: 2.16 µM
  CC50: 11.6 µM
SN12C
  GI50: 2.84 µM
  CC50: > 100 µM
T-47D
  GI50: 1.5 µM
  CC50: > 100 µM
CCRF-CEM
  TGI: > 100 µM
  GI50: 2.92 µM
  CC50: > 100 µM
NCI-322M
  GI50: > 100 µM
  CC50: > 100 µM
  TGI: >100/>100/>100 μM
Colo 205
  TGI: > 100 µM
  GI50: 2.45 µM
  CC50: > 100 µM
HT-29
  TGI: 8.47 µM
  GI50: 2.84 µM
  CC50: > 100 µM
M14
  GI50: 2.53 µM
  CC50: > 100 µM
  TGI: > 100 µM
OVCAR-5
  GI50: 2.82 µM
  CC50: > 100 µM
  TGI: 7.91 µM
OVCAR-8
  GI50: 3.13 µM
  CC50: > 100 µM
  TGI: > 100 µM
UO-31
  GI50: 1.59 µM
  CC50: 6.05 µM
  TGI: 3.10 µM
MDA-MB-231/ATCC
  GI50: 3.35 µM
  CC50: > 100 µM
  TGI: > 100 µM
BT-549
  TGI: 4.17 µM
  GI50: 1.79 µM
  CC50: > 100 µM

Reference: article PMC8161026, “Synthesis and Anticancer Activity Evaluation of 5-[2-Chloro-3-(4-nitrophenyl)-2-propenylidene]-4-thiazolidinones” (Molecules, 2021)
